Entries after “also recorded” stand apart in the source; their conditions may differ.
Assays:
[1] = molecular target: Gluc-DOR (a PQQ-dependent GDH) (Acinetobacter calcoaceticus, UniProt P13650); test: Enzymatic activity in test elements including Gluc-DOR; type: biochemical; details: dry test element; after 3 weeks at 45° C.
Protocol: (§1) A test element with Gluc-DOR and a mutant thereof (Gluc-DOR 31) was generated as described above in Example 1. The test element was analyzed as described above in Example 2. The determination of the enzymatic activity was carried out using nitrosoaniline as described in EP Patent No. 0 620 283.

Gluc-DOR 31 mutant = test: Enzymatic activity in test elements including Gluc-DOR 31 mutant; type: biochemical; details: dry test element; after 3 weeks at 45° C.
Protocol: as §1

[2] = system: diaphorase from B. subtilis; test: Enzymatic activity in eluted test elements after dry storage (diaphorase); type: biochemical; details: test elements stored dry 6 weeks at 45° C.
Protocol: (§2) Four different reaction films for determining glucose levels were generated and coated on a foil essentially as described in EP Patent No. 0 821 234. The formulation of the first coat/film layer composition is shown below in Table 1.
(§3) The pH was adjusted to 6.8, and the composition was coated as a first film (about 120 μm) on a polycarbonate foil (125 μm). The coated composition was subsequently dried at 50° C.
(§4) The pH was adjusted to 6.8, and the composition was coated as a second film (about 25 μm) onto the first film coated on the foil. The coated composition was subsequently dried at 50° C. Test strips for glucose determination were generated as described in EP Patent No. 0 821 234.
(§5) Test elements were stored in plastic vials in the presence of a drying agent for 6 weeks at 45° C. In a subsequent step, the test field of a test element was eluted by ultra-sonication using elution buffer. Enzymatic activity was determined in the supernatant.

[3] = system: glucose dehydrogenase and diaphorase; test: Blood glucose measurement with stored test elements as indicator for enzymatic activity; type: biochemical, B. subtilis; details: 1 g/100 g composition; stored 63 days at 4, 24, 35 and 45° C.; normalized to 4° C.
Protocol: Test elements were stored in plastic vials in the presence of a drying agent for 63 days at 4° C. (KS), 24° C. (RT), 35° C. (DT) and 45° C. (HT). Test elements were used to determine blood glucose levels in a plurality of venous blood samples. The samples were measured with a reference method (Hitachi) in parallel. Results were normalized with respect to the KS stored test elements.

glucose oxidase = glucose oxidase (Aspergillus niger, UniProt P13006); details: test elements for electrochemically determining glucose; WO 2007/097653, Loose (2006); cited from earlier work
glucose oxidase, sequence (P13006 17-605, species assumed): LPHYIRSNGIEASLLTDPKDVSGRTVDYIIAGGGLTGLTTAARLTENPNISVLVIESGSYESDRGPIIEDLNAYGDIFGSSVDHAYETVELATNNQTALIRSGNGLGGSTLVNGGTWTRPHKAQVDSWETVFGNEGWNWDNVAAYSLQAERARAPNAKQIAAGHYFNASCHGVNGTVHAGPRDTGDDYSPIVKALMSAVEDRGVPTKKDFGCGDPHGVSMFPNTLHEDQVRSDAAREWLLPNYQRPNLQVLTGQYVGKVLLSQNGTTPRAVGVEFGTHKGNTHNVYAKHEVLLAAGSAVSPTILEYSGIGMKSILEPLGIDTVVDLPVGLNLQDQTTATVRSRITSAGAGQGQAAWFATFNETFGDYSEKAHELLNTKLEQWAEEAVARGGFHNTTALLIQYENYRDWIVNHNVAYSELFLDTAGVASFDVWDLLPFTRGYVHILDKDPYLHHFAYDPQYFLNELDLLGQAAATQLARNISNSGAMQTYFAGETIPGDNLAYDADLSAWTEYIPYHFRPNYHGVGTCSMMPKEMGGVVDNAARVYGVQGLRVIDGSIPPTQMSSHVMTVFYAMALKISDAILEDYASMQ

[4] = system: glucose dehydrogenase and diaphorase; test: Enzymatic activity in test elements with different buffers; type: biochemical, B. subtilis; details: 2 g ectoine per 100 g first coating film; phosphate-buffer pH 6.8 or HEPES pH 7.1; 45 days, 45° C. to 4° C.
Description: Test elements were stored and treated essentially as described in Example 3. Different buffers, namely a phosphate-buffer pH 6.8, without stabilizer, a phosphate-buffer pH 6.8, 2 g ectoine per 100 g first coating film, a HEPES buffer pH 7.1, without stabilizer, and a HEPES buffer pH 7.1, 2 g ectoine per 100 g first coating film, were used in the coating compositions as indicated in FIG. 4.

GDH from B. subtilis = GDH from B. subtilis (Bacillus subtilis, UniProt P12310); test: Enzymatic activity in eluted test elements after dry storage (GDH); type: biochemical; details: concentrations larger than 0.3 g/100 g coating composition; test elements stored dry 6 weeks at 45° C.
GDH from B. subtilis, sequence (P12310 whole entry): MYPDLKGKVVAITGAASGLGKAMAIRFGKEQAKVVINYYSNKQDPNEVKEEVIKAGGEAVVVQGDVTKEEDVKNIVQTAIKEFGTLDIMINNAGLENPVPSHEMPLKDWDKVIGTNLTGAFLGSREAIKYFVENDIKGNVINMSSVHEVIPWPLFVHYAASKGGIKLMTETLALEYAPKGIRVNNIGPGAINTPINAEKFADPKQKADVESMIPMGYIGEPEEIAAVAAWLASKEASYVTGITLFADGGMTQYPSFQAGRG
Protocol: as §2, §3, §4, §5

[5] = system: Glucose dehydrogenase Mut. 2; test: Enzymatic activity of glucose dehydrogenase mutant 2 in solution after storage; type: biochemical; details: for stabilizing effect in solution: 1-4% (w/v) stabilizer in solution, storage at 4, 35 or 45° C.; for Enzymatic Activity: in solution
Protocol: Aliquots of a solution including a glucose dehydrogenase mutant 2 as disclosed in WO Patent Application Publication No. 2011/020856 was combined with different amounts of ectoine or hydroxyectoine as indicated below in Table 4.
The aliquots were stored under different storage conditions (8 days, 4° C.; 8 days 35° C., 4 days 4° C. followed by 4 days 45° C.), and the enzymatic activity was determined after the storage.

lactate dehydrogenase = details: in solution; Andersson et al. (2000); cited from earlier work
[6] = stabilizer about 1%, 4 days at 4° C., 4 days at 45° C.
[7] = stabilizer about 1%, 8 days at 4° C.
[8] = stabilizer about 1%, 8 days at 35° C.
[9] = stabilizer about 2%, 4 days at 4° C., 4 days at 45° C.
[10] = stabilizer about 2%, 8 days at 4° C.
[11] = stabilizer about 2%, 8 days at 35° C.
[12] = stabilizer about 4%, 4 days at 4° C., 4 days at 45° C.
[13] = stabilizer about 4%, 8 days at 4° C.
[14] = stabilizer about 4%, 8 days at 35° C.

Gluc-DOR (a PQQ-dependent GDH), sequence (P13650 25-478): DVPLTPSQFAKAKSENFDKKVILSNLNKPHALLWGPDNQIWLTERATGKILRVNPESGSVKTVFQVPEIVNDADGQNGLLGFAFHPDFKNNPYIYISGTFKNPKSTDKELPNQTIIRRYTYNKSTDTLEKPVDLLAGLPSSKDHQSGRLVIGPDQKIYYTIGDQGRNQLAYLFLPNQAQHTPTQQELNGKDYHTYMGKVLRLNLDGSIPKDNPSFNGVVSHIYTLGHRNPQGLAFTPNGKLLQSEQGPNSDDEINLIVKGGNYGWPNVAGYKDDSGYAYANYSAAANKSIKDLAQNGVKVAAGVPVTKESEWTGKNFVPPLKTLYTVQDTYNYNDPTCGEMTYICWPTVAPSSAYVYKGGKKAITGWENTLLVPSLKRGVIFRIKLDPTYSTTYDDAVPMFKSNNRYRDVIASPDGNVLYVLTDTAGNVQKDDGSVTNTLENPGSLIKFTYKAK

SMILES	stabilizing effect on Gluc-DOR [1]	stabilizing effect on Gluc-DOR 31 mutant (Gluc-DOR 31 mutant)	stabilization of diaphorase [2]	preservation of enzymatic activities (measured glucose level) [3]	stabilization of glucose oxidase (glucose oxidase)	stabilizing activity with different buffers [4]	stabilizing effect (activity versus test elements without stabilizer) (GDH from B. subtilis)	stabilizing effect in solution [5]	Enzymatic Activity [5, 6]	Enzymatic Activity [5, 7]	Enzymatic Activity [5, 8]	Enzymatic Activity [5, 9]	Enzymatic Activity [5, 10]	Enzymatic Activity [5, 11]	Enzymatic Activity [5, 12]	Enzymatic Activity [5, 13]	Enzymatic Activity [5, 14]	prevention of protein aggregation (lactate dehydrogenase)
CC1=NCC[C@@H](C(=O)O)N1 [ectoine, (S)-2-methyl-3,4,5,6-tetrahydropyrimidine-4-carboxylic acid]	stabilizing effect	stabilizing effect	stabilized	act as stabilizers	Stabilization	observed independent of the buffer system	more than 10%	No stabilizing effect; also recorded: not observed	60 kU/g	222 kU/g	144 kU/g	59 kU/g	222 kU/g	149 kU/g	57 kU/g	207 kU/g	137 kU/g	–
CC1=NC[C@H](O)[C@@H](C(=O)O)N1 [hydroxyectoine]	–	–	stabilized	act as stabilizers	Stabilization	–	same effect	No stabilizing effect	52 kU/g	208 kU/g	122 kU/g	60 kU/g	221 kU/g	141 kU/g	56 kU/g	207 kU/g	131 kU/g	incapable of preventing protein aggregation
